Experiments:
[1] = tested on: Escherichia coli EC-1: VOGEL, mouse virulent; experiment: MIC determination (CLSI), strain EC-1; format: cell-based; conditions: strain EC-1, unit assumed
Procedure: (§1) The in vitro antibacterial activity of compounds described in the Examples was evaluated by minimum inhibitory concentration (MIC) testing according to Clinical and Laboratory Standards Institute (CLSI, formerly NCCLS) guidelines. See: Clinical and Laboratory Standards Institute. Methods for Dilution Antimicrobial Susceptibility Tests for Bacteria that Grow Aerobically; Approved Standard-Seventh Edition. CLSI document M7-A7 [ISBN 1-56238-587-9]. Clinical and Laboratory Standards Institute, 940 West Valley Road, Suite 1400, Wayne, Pa. 19087-1898 USA, 2006; also Clinical and Laboratory Standards Institute. Performance Standards for Antimicrobial Susceptibility Testing; Eighteenth Informational Supplement. CLSI document M100-S18 [ISBN1-56238-653-0].Clinical and Laboratory Standards Institute.
(§2) The following bacterial strains were used in these MIC determinations:
3) Escherichia coli EC-1: VOGEL, mouse virulent labeled as EC-1 in Tables 4 and 5;

[2] = tested on: Pseudomonas aeruginosa UI-18: Wild-type (PA-7); experiment: MIC determination (CLSI), strain PA-7; format: cell-based; conditions: strain PA-7, unit assumed
Procedure: as §1, §2
1) Pseudomonas aeruginosa UI-18: Wild-type, labeled as PA-7 in Tables 4, and 5;

[3] = generated in the same manner as in Table 4

Structure (SMILES)	EC-1 (MIC) [1] [µg/mL]	PA-7 (MIC) [2] [µg/mL]	EC-1 (MIC) [1, 3] [µg/mL]	PA-7 (MIC) [2, 3] [µg/mL]
CC(CCn1ccc(-c2ccc3cc(O)ccc3c2)cc1=O)(C(=O)NO)S(C)(=O)=O (stereo not drawn) [Example 258, N-hydroxy-4-[4-(6-hydroxy-2-naphthyl)-2-oxopyridin-1(2H)-yl]-2-methyl-2-(methylsulfonyl)butanamide]	1	2		
Cc1nnnn1-c1ccc(-c2ccn(CC[C@](C)(C(=O)NO)S(C)(=O)=O)c(=O)c2)cc1 [Example 378, (2R)-N-hydroxy-2-methyl-2-(methylsulfonyl)-4-{4-[4-(5-methyl-1H-tetrazol-1-yl)phenyl]-2-oxopyridin-1(2H)-yl}butanamide]	32	64		
C[C@@](CCn1ccc(-c2ccc(OC3CCNCC3)c(F)c2)cc1=O)(C(=O)NO)S(C)(=O)=O [Example 337, (2R)-4-{4-[3-fluoro-4-(piperidin-4-yloxy)phenyl]-2-oxopyridin-1(2H)-yl}-N-hydroxy-2-methyl-2-(methylsulfonyl)butanamide]	> 64	> 64		
Cc1c(F)cccc1-c1ccn(CCC(C)(C(=O)NO)S(C)(=O)=O)c(=O)c1 (stereo not drawn) [Example 153, 4-[4-(3-fluoro-2-methylphenyl)-2-oxopyridin-1(2H)-yl]-N-hydroxy-2-methyl-2-(methylsulfonyl)butanamide]			32	8
CC(CCn1ccc(-c2ccc3cc[nH]c3c2)cc1=O)(C(=O)NO)S(C)(=O)=O (stereo not drawn) [Example 176, N-hydroxy-4-[4-(1H-indol-6-yl)-2-oxopyridin-1(2H)-yl]-2-methyl-2-(methylsulfonyl)butanamide]			8	4
Cc1cccc(-c2ccn(CCC(C)(C(=O)NO)S(C)(=O)=O)c(=O)c2)c1F (stereo not drawn) [Example 264, 4-[4-(2-fluoro-3-methylphenyl)-2-oxopyridin-1(2H)-yl]-N-hydroxy-2-methyl-2-(methylsulfonyl)butanamide]	0.5	0.5		
CC(CCn1ccc(-c2cccc(F)c2F)cc1=O)(C(=O)NO)S(C)(=O)=O (stereo not drawn) [Example 147, 4-[4-(2,3-difluorophenyl)-2-oxopyridin-1(2H)-yl]-N-hydroxy-2-methyl-2-(methylsulfonyl)butanamide]			2	1
COc1ncccc1-c1ccn(CCC(C)(C(=O)NO)S(C)(=O)=O)c(=O)c1 (stereo not drawn) [Example 182, N-hydroxy-4-(2-methoxy-2′-oxo-3,4′-bipyridin-1′(2′H)-yl)-2-methyl-2-(methylsulfonyl)butanamide]			> 64	64
CC(CCn1ccc(-c2ccc(O)cc2)cc1=O)(C(=O)NO)S(C)(=O)=O (stereo not drawn) [Example 97, N-hydroxy-4-[4-(4-hydroxyphenyl)-2-oxopyridin-1(2H)-yl]-2-methyl-2-(methylsulfonyl)butanamide]			> 64	> 64
C[C@H](O)c1ccc2cc(-c3ccn(CC[C@](C)(C(=O)NO)S(C)(=O)=O)c(=O)c3)ccc2c1 [Example 360, (2R)-N-hydroxy-4-[4-{6-[(1S)-1-hydroxyethyl]-2-naphthyl}-2-oxopyridin-1(2H)-yl]-2-methyl-2-(methylsulfonyl)butanamide]	0.5	1		
CC(CCn1ccc(-c2cccc(F)c2)cc1=O)(C(=O)NO)S(C)(=O)=O (stereo not drawn) [Example 187, 4-[4-(3-fluorophenyl)-2-oxopyridin-1(2H)-yl]-N-hydroxy-2-methyl-2-(methylsulfonyl)butanamide]	8	2		
Cc1ccc(-c2ccn(CCC(C)(C(=O)NO)S(C)(=O)=O)c(=O)c2)cc1 (stereo not drawn) [Example 190, N-hydroxy-2-methyl-4-[4-(4-methylphenyl)-2-oxopyridin-1(2H)-yl]-2-(methylsulfonyl)butanamide]	1	1		
Cn1ccnc1-c1ccc(-c2ccn(CCC(C)(C(=O)NO)S(C)(=O)=O)c(=O)c2)cc1 (stereo not drawn) [Example 104, N-hydroxy-2-methyl-4-{4-[4-(1-methyl-1H-imidazol-2-yl)phenyl]-2-oxopyridin-1(2H)-yl}-2-(methylsulfonyl)butanamide]			> 64	> 64
CC(CCn1ccc(-c2ccc(OCc3ccncc3)cc2)cc1=O)(C(=O)NO)S(C)(=O)=O (stereo not drawn) [Example 268, N-hydroxy-2-methyl-2-(methylsulfonyl)-4-{2-oxo-4-[4-(pyridin-4-ylmethoxy)phenyl]pyridin-1(2H)-yl}butanamide]	1	2		
COc1ccc(-c2ccn(CCC(C)(C(=O)NO)S(C)(=O)=O)c(=O)c2)cc1 (stereo not drawn) [Example 170, N-hydroxy-4-[4-(4-methoxyphenyl)-2-oxopyridin-1(2H)-yl]-2-methyl-2-(methylsulfonyl)butanamide]			1	1
C[C@@](CCn1ccc(-c2ccc(-n3ncc(O)n3)cc2)cc1=O)(C(=O)NO)S(C)(=O)=O [Example 407, (2R)-N-hydroxy-4-{4-[4-(4-hydroxy-2H-1,2,3-triazol-2-yl)phenyl]-2-oxopyridin-1(2H)-yl}-2-methyl-2-(methylsulfonyl)butanamide]	16	32		
C[C@@](CCn1ccc(-c2ccc(Oc3cc(Cl)ccn3)cc2)cc1=O)(C(=O)NO)S(C)(=O)=O [Example 428, (2R)-4-[4-{4-[(4-chloropyridin-2-yl)oxy]phenyl}-2-oxopyridin-1(2H)-yl]-N-hydroxy-2-methyl-2-(methylsulfonyl)butanamide]	0.125	1		
Cc1cc(-c2cc(CO)no2)ccc1-c1ccn(CCC(C)(C(=O)NO)S(C)(=O)=O)c(=O)c1 (stereo not drawn) [Example 286]	16	16		
C[C@@](CCn1ccc(-c2ccc(Oc3ccc(Cl)cn3)cc2)cc1=O)(C(=O)NO)S(C)(=O)=O [Example 430, (2R)-4-[4-{4-[(5-chloropyridin-2-yl)oxy]phenyl}-2-oxopyridin-1(2H)-yl]-N-hydroxy-2-methyl-2-(methylsulfonyl)butanamide]	0.125	2		
CC(CCn1ccc(-c2ccc(OC(F)(F)F)cc2)cc1=O)(C(=O)NO)S(C)(=O)=O (stereo not drawn) [Example 145, N-hydroxy-2-methyl-2-(methylsulfonyl)-4-{2-oxo-4-[4-(trifluoromethoxy)phenyl]pyridin-1(2H)-yl}butanamide]			1	2
C[C@@](CCn1ccc(-c2ccc(-c3cscn3)cc2)cc1=O)(C(=O)NO)S(C)(=O)=O [Example 405, (2R)-N-hydroxy-2-methyl-2-(methylsulfonyl)-4-{2-oxo-4-[4-(1,3-thiazol-4-yl)phenyl]pyridin-1(2H)-yl}butanamide]	0.125	1		
CC(CCn1ccc(-c2cc(Cl)ccc2F)cc1=O)(C(=O)NO)S(C)(=O)=O (stereo not drawn) [Example 150, 4-[4-(5-chloro-2-fluorophenyl)-2-oxopyridin-1(2H)-yl]-N-hydroxy-2-methyl-2-(methylsulfonyl)butanamide]			4	4
C[C@@](CCn1ccc(-c2ccc(CO)nc2)cc1=O)(C(=O)NO)S(C)(=O)=O [Example 418, (2R)-N-hydroxy-4-[6-(hydroxymethyl)-2′-oxo-3,4′-bipyridin-1′(2′H)-yl]-2-methyl-2-(methylsulfonyl)butanamide]	> 64	64		
CC(C)Oc1ccc(-c2ccn(CC[C@](C)(C(=O)NO)S(C)(=O)=O)c(=O)c2)cc1 [Example 390, (2R)-N-hydroxy-4-[4-(4-isopropoxyphenyl)-2-oxopyridin-1(2H)-yl]-2-methyl-2-(methylsulfonyl)butanamide]	0.25	0.5		
C/C(=N\O)c1ccc(-c2ccn(CCC(C)(C(=O)NO)S(C)(=O)=O)c(=O)c2)cc1 (stereo not drawn) [Example 80, N-hydroxy-4-[4-{4-[(1E)-N-hydroxyethanimidoyl]phenyl}-2-oxopyridin-1(2H)-yl]-2-methyl-2-(methylsulfonyl)butanamide]			8	32
CC(CCn1ccc(-c2ccc(OCCN3CCCC3)cc2)cc1=O)(C(=O)NO)S(C)(=O)=O (stereo not drawn) [Example 74]			> 64	> 64
COc1ccc(-c2ccn(CC[C@](C)(C(=O)NO)S(C)(=O)=O)c(=O)c2C)c(F)c1 [Example 393, (2R)-4-[4-(2-fluoro-4-methoxyphenyl)-3-methyl-2-oxopyridin-1(2H)-yl]-N-hydroxy-2-methyl-2-(methylsulfonyl)butanamide]	0.5	1		
CCNC(=O)c1cc(F)cc(-c2ccn(CCC(C)(C(=O)NO)S(C)(=O)=O)c(=O)c2)c1 (stereo not drawn) [Example 103, N-ethyl-3-fluoro-5-{1-[4-(hydroxyamino)-3-methyl-3-(methylsulfonyl)-4-oxobutyl]-2-oxo-1,2-dihydropyridin-4-yl}benzamide]			> 64	> 64
CN(C)c1ccc(-c2ccn(CCC(C)(C(=O)NO)S(C)(=O)=O)c(=O)c2)cn1 (stereo not drawn) [Example 116, 4-[6-(dimethylamino)-2′-oxo-3,4′-bipyridin-1′(2′H)-yl]-N-hydroxy-2-methyl-2-(methylsulfonyl)butanamide]			16	64
CCS(=O)(=O)c1ccc(-c2ccn(CCC(C)(C(=O)NO)S(C)(=O)=O)c(=O)c2)cc1 (stereo not drawn) [Example 136, 4-{4-[4-(ethylsulfonyl)phenyl]-2-oxopyridin-1(2H)-yl}-N-hydroxy-2-methyl-2-(methylsulfonyl)butanamide]			> 64	64
